Reference: patent US20240150709A1, “COMPOSITIONS AND METHODS FOR MAKING PARASYMPATHETIC NEURONS” (University of Georgia Research Foundation, Inc., priority 2022, published 2024)

Assays:
[1] = tested on: hPSC-parasymNs; assay: MEA neural activity of hPSC-parasymNs; format: cell-based, human; conditions: for parasymN activity (relative MFR: mean firing rate): 1 μM vs control, day 30 hPSC-parasymNs
Method: (§2) For neural activity measurements, day 16 SCPs were plated on PO/LM/FN coated MEA plates (Axion BioSystems, BioCircuit or CytoView) at 100×10^3 cells/cm^2. […] Activity of differentiated parasymNs or CMs/SMCs on desired timepoints was measured using a MEA plate reader (Axion BioSystems, Maestro Pro) under the neural detection mode or cardiac detection mode, respectively, according to manufacturer's instruction.

[2] = tested on: hPSC-symNs; assay: MEA neural activity of hPSC-symNs; format: cell-based, human; conditions: 6-OHDA 100 μM, normalized to vehicle
Method: as §2

[3] = tested on: symN; assay: 6-OHDA toxicity in symN (western blot, immunostaining, microscopy); format: cell-based, human
Method: Day 30 parasymNs and symNs on 6-well plates were prepared for sample collection. One well for each sample. Cells were washed by PBS and scraped after incubating with lysis buffer contains RIPA buffer (Sigma-Aldrich, R0278, 1×), PMSF protease inhibitor (Thermo Fisher Scientific, 36978, 1 mM) and PhosSTOP phosphatase inhibitor (Sigma-Aldrich, 4906845001). Protein concentration was measured using Bradford reagent (Bio-Rad, 5000006). Proteins were loaded as 20 μg/well and ran in 12% acrylamide gel. After the transfer, nitrocellulose membranes were blocked by 5% skim milk in TBST.
Membranes were incubated with primary antibodies overnight at 4° C. The next day, membranes were washed by PBST and incubated with secondary antibodies for one hour at room temperature. Images were taken using the iBright western blot imager (Invitrogen, FL1500).
(§1) Cells were fixed by 4% paraformaldehyde for 20 minutes and washed twice by PBS. Fixed cells were permeabilized by 0.3% Triton, 1% BSA and 3% goat or donkey serum in 1× PBS for 20 minutes, and incubated with primary antibodies overnight at 4° C. The next day, cells were washed and incubated with secondary antibodies for one hour at room temperature. Lastly, cells were washed and incubated with DAPI (Sigma, D9542, 1:1000) for 15 minutes at room temperature. Fluorescent images were taken using the Lionheart FX Automated Microscope.

[4] = tested on: parasymN; assay: 6-OHDA toxicity in parasymN (microscopy); format: cell-based, human; conditions: parasymN after 6-OHDA
Method: as §1

[5] = tested on: non-neural contaminating cell types; assay: Purification of non-neural contaminating cells in parasymN differentiation; format: cell-based, human; conditions: AraC added during the differentiation
Method: FIG. 13A illustrates that cell cycle inhibitor AraC was added during the differentiation.

[6] = tested on: 3T3-L1-derived white adipocytes; assay: Lipolysis assay, 3T3-L1-derived white adipocytes alone; format: cell-based, mouse; conditions: 10 μM isoproterenol; differentiated adipocytes alone
Method: 3T3-L1 were seeded at 20×10^3 cells/cm^2 and fed until 80% confluency, which was defined as day 0. From day 0-3, cells were fed with the differentiation medium containing DMEM (Gibco, 11965118), 10% FBS, 0.5 mM IBMX (Cayman, 13347), 1 μM dexamethasone (Sigma, D2915), and 10 μg/ml insulin (Sigma, 19278). From day 3-6, cells were fed with post-differentiation medium containing DMEM, 10% FBS, and 10 μg/ml insulin. After day 6, cells were maintained in DMEM with 10% FBS until the desired timepoints. To begin with, adipocyte culture medium was replaced with prewarmed lipolysis medium containing 0.5% BSA in DMEM, and cells were incubated for 4 hours at 37° C. After 4 hours, the lipolysis medium was replaced with fresh prewarmed lipolysis medium with test drugs and incubate for 90 minutes at 37° C. […] Glycerol release in adipocyte cultured medium was measured using Adipolysis Assay Kit (Cayman, 10009381) according to manufacturer's instruction.

[7] = tested on: 3T3-L1-derived white adipocytes; assay: Lipolysis assay, white adipocytes with or without parasymN co-culture; format: cell-based, mouse
Method: To begin with, adipocyte culture medium was replaced with prewarmed lipolysis medium containing 0.5% BSA in DMEM, and cells were incubated for 4 hours at 37° C. After 4 hours, the lipolysis medium was replaced with fresh prewarmed lipolysis medium with test drugs and incubate for 90 minutes at 37° C. Then, the cell culture medium was collected for the assay or stored at −20° C. for long-term storage. Glycerol release in adipocyte cultured medium was measured using Adipolysis Assay Kit (Cayman, 10009381) according to manufacturer's instruction.
To test whether adipose functions can be regulated by parasymN activity, the lipolytic activity was compared.

[8] = tested on: mouse salivary cell; assay: Calcium imaging of parasymN and mouse salivary cell coculture; format: cell-based; conditions: coculture with parasymN; nicotine stimulation
Excerpt: FIG. 14B is a plot showing calcium imaging for salivary cell only upon nicotine stimulation.

[9] = tested on: hPSC-CMs; conditions: nicotine 1 μM; co-culture with hPSC-parasymNs; MEA
Method: CM differentiation. […] Briefly, 80-90% confluent H9 ESCs were replated at a 1 to 5 ratio on Matrigel (Corning, 1:20)-coated plates. When cells reached 90% confluency, medium was changed to CDBM base medium, that contains DMEM/F12 (Gibco, 11320033), 64 mg/L ascorbic acid, 13.6 μg/L sodium selenium (Sigma, S5261), 10 μg/ml transferrin (Sigma, T3309) and Chemically Defined Lipid Concentrate (Gibco, 11905031). 5 μM CHIR99021 was added to CDBM medium on day 0. 0.6 U/ml heparin ([sequence] Technologies, 07980) was added to CDBM medium on day 1, 5, 6. 0.6 U/ml heparin and 3 μM XAV were added to CDBM medium on day 2, 3, 4. After day 7, medium was changed to CM maintenance medium that contains CDBM base, 20 μg/ml insulin (Sigma, 1-034), and 2% FBS. CMs were replated on day 10 using accutase at 200×10^3 cells/cm^2 on Matrigel-coated plates. […]
as §2

Compound: NCCc1cc(O)c(O)cc1O [6-OHDA]
- relative MFR over 12 hours after 6-OHDA ([1]; 6-OHDA 100 μM, hPSC-parasymNs, normalized to vehicle): remained unaffected
- relative MFR over 12 hours after 6-OHDA [2]: displayed early hyperactivity
- cell death markers PUMA/c-Cas3, western blot ([3]; 12 hours after treating parasymN/symN with 6-OHDA): increased only in symN
- cell death marker c-Cas3, percentage of cells by immunostaining ([3]; 24 hours after treating parasymN/symN with 6-OHDA): increased only in symN
- neural morphology by microscopy ([3]; symN after 6-OHDA): damaged neural morphology
- neural morphology by microscopy [4]: almost intact

Compound: Nc1ccn([C@@H]2O[C@H](CO)[C@@H](O)[C@@H]2O)c(=O)n1 [AraC]
- contaminating cells by immunostaining [5]: reduced

Compound: CC(C[N+](C)(C)C)OC(N)=O (stereo not shown) [BeCh, bethanechol]
- parasymN activity (relative MFR: mean firing rate) ([1]; MEA): activated

Compound: CN1[C@@H]2CC[C@H]1C[C@@H](OC(=O)C(CO)c1ccccc1)C2 (stereo partly shown) [atropine]
- parasymN activity (relative MFR: mean firing rate) ([1]; MEA): inactivated

Compound: CC(C)NCC(O)c1ccc(O)c(O)c1 (stereo not shown) [isoproterenol]
- lipolytic activity (glycerol release) [6]: displayed lipolytic activity
- lipolytic levels induced by isoproterenol (normalized glycerol release) ([7]; 10 μM isoproterenol, adipocytes co-cultured with parasymNs): counteracted

Compound: CN1CCCC1c1cccnc1 (stereo not shown) [nicotine]
- parasymN activity (relative MFR: mean firing rate) ([1]; MEA): further inducible
- lipolysis levels (glycerol release) ([7]; 1 μM nicotine, adipocytes only or parasymN co-cultured): remained unchanged
- salivary cell activity (calcium imaging) [8]: increased
- beating of hPSC-CMs (relative beats/min) [9]: decreased

Compound: angiotensin II (DRVYIHPF; Angiotensin-2; UniProt P01019 25-32, looked up) [Ang II, angiotensin II of the renin-angiotensin-aldosterone system]
- parasymN activity (fold change of MFR) ([1]; angiotensin II vs control (DMSO), MEA): decreased
